Assay: Elution test, paddle method of the Japanese Pharmacopoeia (elution rate by HPLC)
Assay type: physicochemical
Settings: 37±0.5° C., 75 rpm; for Elution rate (%) 10 min: 10 min after addition; for Elution rate (%) 60 min: 60 min after addition; for Elution rate (%) 120 min: 120 min after addition
Method: The elution test was performed according to the paddle method in the Japanese Pharmacopoeia the 17th edition. Specifically, the test solution was set to 900 mL of the elution test solution No. 1 of the Japanese Pharmacopoeia, the temperature was set to 37±0.5° C., the rotation speed was set to 75 rpm, the sample to be tested was loaded, and then about 1 mL was sampled at regular intervals, filtered through a syringe filter, and then subjected to HPLC analysis to determine the peak area of the active pharmaceutical ingredient. The obtained area was compared to the peak area of the active pharmaceutical ingredient at the elution rate of 100% to calculate the elution rate (%).
The elution rate is a value obtained by performing HPLC analysis with 200 mg of an IBP crystal all dissolved in 900 mL of the test solution, taking the obtained area as the elution rate of 100%, adding the active pharmaceutical ingredient or the active pharmaceutical ingredient carrier to the eluate, then performing sampling overtime, performing filtering and HPLC analysis to calculate the area, and comparing the area to the value of the elution rate of 100%.
An active pharmaceutical ingredient carrier (corresponding to 200 mg of an active pharmaceutical ingredient) (0.66 g) was weighed, and subjected to the elution test according to the paddle method in the Japanese Pharmacopoeia elution test method using the elution test solution No. 1 (pH 1.2). The temperature of the test solution was 37±0.5° C., and the rotation speed was 75 rpm. Sampling was performed at 5 minutes, 10 minutes, 15 minutes, 30 minutes, and then once every 15 minutes until 120 minutes after addition of the active pharmaceutical ingredient carrier, the obtained sample was immediately filtered using a syringe filter, and the elution rate (%) was calculated as described above from the peak area of the active pharmaceutical ingredient by high performance liquid chromatography (HPLC) with a UV detector.
The elution test of an IBP crystal was performed in the same manner as described above except that an ibuprofen active pharmaceutical ingredient (IBP crystals) was used instead of the active pharmaceutical ingredient carrier.
In the same manner as in the elution test, the elution test of the obtained active pharmaceutical ingredient carrier or the ezetimibe active ingredient (an ETB crystal) was performed. This test was performed using the elution test solution No. 1 (pH 1.2) same as that described above and the elution test solution No. 2 (pH 6.8).
In the same manner as described above, the elution test of the obtained active pharmaceutical ingredient carrier or the celecoxib active ingredient (a CXB crystal) was performed using the elution test solution No. 1 (pH 1.2) or the elution test solution No. 2 (pH 6.8).
In the same manner as described above, the elution test of the obtained active pharmaceutical ingredient carrier or the azilsartan active ingredient (an AZL crystal) was performed using the elution test solution No. 1 (pH 1.2).

[1] = elution test solution No. 1 (pH 1.2), 900 mL
[2] = elution test solution No. 2 (pH 6.8)

Row | Elution rate (%) 10 min [1] [%] | Elution rate (%) 60 min [1] [%] | Elution rate (%) 120 min [1] [%] | Elution rate (%) 10 min [2] [%] | Elution rate (%) 60 min [2] [%] | Elution rate (%) 120 min [2] [%] | SMILES
1 | 0.58 | 4.7 | 7.4 | – | – | – | CCOc1nc2cccc(C(=O)O)c2n1Cc1ccc(-c2ccccc2-c2nc(=O)o[nH]2)cc1 [AZL crystal, azilsartan]
2 | 6.1 | 8.4 | 8.4 | 6.6 | 8.3 | 8.2 | O=C1[C@H](CC[C@H](O)c2ccc(F)cc2)[C@@H](c2ccc(O)cc2)N1c1ccc(F)cc1 [ETB crystal, ezetimibe]
3 | 1.1 | 6.0 | 10.1 | – | – | – | CC(C)Cc1ccc(C(C)C(=O)O)cc1 (stereo not drawn) [IBP crystal, ibuprofen]

— patent US11246931B2, “Active pharmaceutical ingredient carrier and production method of the same” (Tokuyama Corporation, priority 2017, dated 2022)
